In patent publication US20260250257A1, “ANTIBACTERIAL AND SYNERGISTIC ACTIVE COMPOUND AND USE THEREOF” (EAST CHINA UNIVERSITY OF SCIENCE AND TECHNOLOGY, priority 2023, published 2026):
≈ marks a conversion by molar mass, not a printed value.

Assays:
Format in all cases: cell-based
[1] = tested on: ATCC9027 strain (Pseudomonas aeruginosa); test: Checkerboard antibacterial synergistic activity test with polymyxin E (FIC); parameters: key: FIC≤0.5 synergy; 0.5–1 additive; 1–2 indifferent; ≥2 antagonism; conditions: combined with polymyxin E
Summary of the method: (§1)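 Checkerboard in MH broth: colistin dilutions 16→0.015 μg/ml × test drug 256→4 μg/ml (concentrations before adding inoculum); drug mix plus bacteria, 37° C., 16 h. FIC cut-offs: ≤0.5 synergy; 0.5–1 additive; 1–2 indifferent; ≥2 antagonism.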

[2] = tested on: ATCC19606 strain (Acinetobacter baumannii); test: as above; parameters: key: FIC≤0.5 synergy; 0.5–1 additive; 1–2 indifferent; ≥2 antagonism; conditions: combined with polymyxin E
Summary of the method: as §1

[3] = tested on: ATCC13883 strain (Klebsiella pneumoniae); test: as above; parameters: key: FIC≤0.5 synergy; 0.5–1 additive; 1–2 indifferent; ≥2 antagonism; conditions: combined with polymyxin E
Summary of the method: as §1

[4] = tested on: ATCC25922 strain (Escherichia coli); test: as above; parameters: key: FIC≤0.5 synergy; 0.5–1 additive; 1–2 indifferent; ≥2 antagonism; conditions: combined with polymyxin E
Summary of the method: as §1

[5] = tested on: ATCC9027 strain (Pseudomonas aeruginosa); test: Broth microdilution, antibacterial activity of the compound used alone; conditions: for MIC: read-out: Antibacterial activity of the compound of Formula I, ATCC9027
Text: (§2) The broth microdilution method was used to test the antibacterial effects of the compounds of the present invention against various Gram-negative bacterial strains when used alone.

[6] = tested on: ATCC19606 strain (Acinetobacter baumannii); test: as above; conditions: for MIC: read-out: Antibacterial activity of the compound of Formula I, ATCC19606
Text: as §2

[7] = tested on: ATCC13883 strain (Klebsiella pneumoniae); test: as above; conditions: for MIC: read-out: Antibacterial activity of the compound of Formula I, ATCC13883
Text: as §2

[8] = tested on: ATCC25922 strain (Escherichia coli); test: as above; conditions: for MIC: read-out: Antibacterial activity of the compound of Formula I, ATCC25922
Text: as §2

MIC [5] [µg/mL] | MIC [6] [µg/mL] | MIC [7] [µg/mL] | MIC [8] [µg/mL] | SMILES | Synergistic activity (FIC value) ATCC9027 [1] | Synergistic activity (FIC value) ATCC19606 [2] | Synergistic activity (FIC value) ATCC13883 [3] | Synergistic activity (FIC value) ATCC25922 [4] | Antibacterial activity of the compound of Formula I, ATCC9027 [5] [µg/mL] | Antibacterial activity of the compound of Formula I, ATCC19606 [6] [µg/mL] | Antibacterial activity of the compound of Formula I, ATCC13883 [7] [µg/mL] | Antibacterial activity of the compound of Formula I, ATCC25922 [8] [µg/mL]
– | – | – | – | NC(N)=Nc1nc(-c2c(I)cc(I)cc2I)cs1 [Compound I-54] | 0.62 | 0.15 | 0.33 | 0.39 | 256 | 256 | 256 | 256
– | – | – | – | CC(=O)c1ccc(-c2csc(N=C(N)N)n2)cc1 [Compound I-24] | 1.25 | 0.5 | 1.25 | 1.25 | 256 | 256 | 256 | 256
– | – | – | – | CS(=O)(=O)c1ccc(Oc2ccccc2Cl)cc1-c1nc(N=C2NCCCN2)sc1Cl [Compound I-155] | 0.28 | 0.03 | 0.16 | 0.18 | 64 | 256 | 128 | 128
– | – | – | – | CC(C)c1cc(-c2coc(N=C(N)N)n2)cc(C(C)C)c1O [Compound I-19] | 0.31 | 0.12 | 0.31 | 0.38 | 256 | 256 | 256 | 256
– | – | – | – | NC(N)=Nc1nc(-c2ccc(C(F)(F)F)cc2)cs1 [Compound I-43] | 0.63 | 1.25 | 1.25 | 0.5 | 256 | 256 | 256 | 256
– | – | – | – | CC(C)c1ccccc1-c1nc(N=C2NCCCN2)sc1Br [Compound I-164] | 0.62 | 0.15 | 0.33 | 0.39 | 256 | 256 | 256 | 256
– | – | – | – | COc1ccccc1-c1csc(N=C(N)N)n1 [Compound I-4] | 1.25 | 1.25 | 1.25 | 0.5 | 256 | 256 | 256 | 256
– | – | – | – | NC(N)=Nc1nc(-c2cccc(Cl)c2)cs1 [Compound I-37] | 0.52 | 0.25 | 1.25 | 1.25 | 256 | 256 | 256 | 256
– | – | – | – | CSc1cc2cc(C)cc(C)n2c1-c1nc(N=C(N)N)oc1C [Compound I-128] | 0.28 | 0.03 | 0.16 | 0.18 | 256 | 256 | 256 | 256
256 (≈ 825 µM) | 256 (≈ 825 µM) | 256 (≈ 825 µM) | 256 (≈ 825 µM) | NC(N)=Nc1nc(-c2cccc(Oc3ccccc3)c2)cs1 [Compound I-2] | 0.53 | 0.26 | 0.75 | 0.51 | – | – | – | –
– | – | – | – | NC(N)=Nc1nc(-c2cccc(C(F)(F)F)c2)c[nH]1 [Compound I-42] | 1.25 | 1.25 | 1.25 | 0.53 | 256 | 256 | 256 | 256
256 (≈ 685 µM) | 256 (≈ 685 µM) | 256 (≈ 685 µM) | 256 (≈ 685 µM) | NC(N)=Nc1nc(-c2cccc(NS(=O)(=O)c3ccccc3)c2)cs1 [Compound I-111] | 1.25 | 0.5 | 0.25 | 0.63 | – | – | – | –
– | – | – | – | Cc1cccc2cccc(-c3csc(N=C(N)N)n3)c12 [Compound I-57] | 0.63 | 0.3 | 0.25 | 0.5 | 256 | 256 | 256 | 256
– | – | – | – | CC(=O)N(C)c1cccc(-c2csc(N=C(N)N)n2)c1 [Compound I-30] | 1.25 | 0.13 | 0.19 | 0.52 | 256 | 256 | 256 | 256
– | – | – | – | NC(N)=Nc1nc(-c2cc(Cl)cc(Oc3ccc(Cl)cc3Cl)c2)cs1 [Compound I-99] | 0.28 | 0.03 | 0.16 | 0.18 | 256 | 256 | 256 | 256
– | – | – | – | Cc1sc(N=C(N)N)nc1-c1cccc(S(C)(=O)=O)c1-c1ccccn1 [Compound I-76] | 0.56 | 0.75 | 0.63 | 0.5 | 256 | 256 | 256 | 256
– | – | – | – | CCc1sc(N=C(N)N)nc1-c1ccccc1Oc1ccc(N2CCOCC2)cc1 [Compound I-102] | 0.51 | 1.25 | 1.25 | 1.25 | 256 | 256 | 256 | 256
256 (≈ 726 µM) | 256 (≈ 726 µM) | 256 (≈ 726 µM) | 256 (≈ 726 µM) | NC(N)=Nc1nc(-c2cccc(NC(=O)Nc3ccccc3)c2)cs1 [Compound I-131] | 0.06 | 0.31 | 0.09 | 0.14 | – | – | – | –
– | – | – | – | Cc1ccc(Oc2cccc(-c3csc(N=C4NCCCN4)n3)c2)c(C)c1 [Compound I-153] | 0.06 | 0.31 | 0.09 | 0.14 | 256 | 256 | 256 | 256
